Consider 2 molecules from ChEMBL document CHEMBL3045943, “Novel N-aryl(alkaryl)-2-[(3-R-2-oxo-2H-[1,2,4]triazino[2,3-c]quinazoline-6-yl)thio]acetamides: synthesis, cytotoxicity, anticancer activity, COMPARE analysis and docking” (2013).

Where only a bound is given, the exact number is not on record here.

What all share (format): functional
One experiment has as its system MDA-MB-468. Briefly: Cytotoxicity against Homo sapiens (human) MDA-MB-468 cells assessed as cell growth at 10 uM after 48 hr by SRB assay relative to control. The conditions noted are these: MDA-MB-468, 48 h, read-out: Activity. A general note: In SRB staining, fixed cells bind dye roughly in proportion to their protein.
Another experiment deals with UACC-62. Briefly: Cytotoxicity against Homo sapiens (human) UACC62 cells assessed as cell growth at 10 uM after 48 hr by SRB assay relative to control. As to conditions: UACC-62, 48 h, read-out: Activity.
The test system of the next experiment is UACC-257. In words: Cytotoxicity against Homo sapiens (human) UACC257 cells assessed as cell growth at 10 uM after 48 hr by SRB assay relative to control. As to conditions: UACC-257, 48 h, read-out: Activity.
The test system of a further experiment is DU-145. Briefly: Cytotoxicity against Homo sapiens (human) DU145 cells after 48 hr by SRB assay. As to conditions: DU-145, 48 h.
Another experiment has as its system PC-3. Briefly: Cytotoxicity against Homo sapiens (human) PC3 cells assessed as cell growth at 10 uM after 48 hr by SRB assay relative to control. The conditions noted are these: PC-3, 48 h, read-out: Activity.
In a further experiment the test system is LOX IMVI. In words: Cytotoxicity against Homo sapiens (human) LOXIMVI cells after 48 hr by SRB assay.
In a further experiment the test system is SF-295. Briefly: Cytotoxicity against Homo sapiens (human) SF295 cells after 48 hr by SRB assay. The conditions noted are these: SF-295, 48 h.
[1] abbreviates: read-out: pLC50 (the source's name) (converted).

For `COc1ccc(-c2nn3c(SCC(=O)Nc4ccccc4Cl)nc4ccccc4c3nc2=O)cc1`, the growth at 10 µM was 44.3% with MDA-MB-468, 18.1% with UACC-62 and -17.1% in the experiment on UACC-257. Besides, in the experiment on DU-145, the GI50 is 1.38 µM. Further, the CC50 with DU-145 (setting [1]) was more than 100 µM. Besides, the TGI with DU-145 (read-out: pTGI) was more than 100 µM.
On to `COc1ccccc1CNC(=O)CSc1nc2ccccc2c2nc(=O)c(-c3ccccc3)nn12`, for which, in the experiment on PC-3, the growth at 10 µM came to 35.6%. The GI50 in the experiment on LOX IMVI is 2.09 µM; in the experiment with SF-295, 2.45 µM. For the same molecule, the CC50 in the experiment on LOX IMVI (setting [1]) and with SF-295 (setting [1]) was more than 100 µM throughout. Moreover, the TGI in the experiment with LOX IMVI (read-out: pTGI) is more than 100 µM; with SF-295 (read-out: pTGI (converted)), 8.51 µM.

A word on the GI50: it is the concentration giving 50% growth inhibition. A low value points to more potent growth inhibition.
